Test results from patent US20230233690A1, “ANDROGEN RECEPTOR PROTEIN DEGRADERS” (THE REGENTS OF THE UNIVERSITY OF MICHIGAN, priority 2020, published 2023).
Like-named read-outs stand apart in the source and are kept apart here.

Key:
[1] = PK parameters in male mice (Table 9); format: in vivo; settings: for F: PO 3 mg/kg vs IV 1 mg/kg
Procedure: The pharmacokinetics (PK) of representative Compounds of the Disclosure were evaluated in mice or rats to provide an assessment of their oral bioavaibility. All animal experiments were performed under the guidelines of the University of Michigan Committee for Use and Care of Animals and using an approved animal protocol.

[2] = molecular target: T1, AR protein (Homo sapiens, UniProt P10275); experiment: Western blotting of AR protein degradation in VCaP cells; format: cell-based; settings: for AR protein degradation VCap 100 nM / AR protein degradation VCap 10 nM: 24 hr treatment
T1 construct: endogenous in cells; host or cells: VCaP
T1 sequence (P10275 1-920): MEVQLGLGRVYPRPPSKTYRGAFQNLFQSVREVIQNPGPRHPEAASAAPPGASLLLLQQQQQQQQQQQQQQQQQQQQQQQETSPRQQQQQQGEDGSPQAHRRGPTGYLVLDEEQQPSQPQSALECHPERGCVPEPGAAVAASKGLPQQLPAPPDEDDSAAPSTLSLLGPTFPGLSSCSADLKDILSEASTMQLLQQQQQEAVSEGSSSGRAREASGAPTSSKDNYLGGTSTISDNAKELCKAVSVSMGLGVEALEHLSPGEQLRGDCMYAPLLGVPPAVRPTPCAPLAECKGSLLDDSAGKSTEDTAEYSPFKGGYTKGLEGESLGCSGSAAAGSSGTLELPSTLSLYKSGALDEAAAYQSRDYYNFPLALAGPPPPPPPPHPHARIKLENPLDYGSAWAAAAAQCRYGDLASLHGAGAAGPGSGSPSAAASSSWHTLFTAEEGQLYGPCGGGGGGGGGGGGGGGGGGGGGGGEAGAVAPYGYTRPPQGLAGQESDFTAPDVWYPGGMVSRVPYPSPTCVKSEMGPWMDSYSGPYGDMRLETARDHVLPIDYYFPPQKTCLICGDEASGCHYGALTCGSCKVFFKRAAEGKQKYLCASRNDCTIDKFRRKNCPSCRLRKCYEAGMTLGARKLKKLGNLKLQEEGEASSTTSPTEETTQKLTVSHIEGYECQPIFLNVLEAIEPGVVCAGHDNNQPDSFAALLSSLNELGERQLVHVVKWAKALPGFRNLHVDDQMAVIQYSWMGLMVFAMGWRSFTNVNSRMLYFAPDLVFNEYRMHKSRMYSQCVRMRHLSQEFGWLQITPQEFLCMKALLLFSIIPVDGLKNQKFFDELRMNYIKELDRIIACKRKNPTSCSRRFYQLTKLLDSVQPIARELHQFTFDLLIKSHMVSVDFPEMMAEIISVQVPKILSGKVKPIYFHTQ
Procedure: The treated cells were lysed with RIPA buffer. […] GAPDH was used as a loading control.
Bands were quantified with ImageJ software. The relative numbers of each band obtained from normalization with its corresponding GAPDH level were compared with Prism 8 software. The DC50 values were produced from Prism 8, and the DC90 values were calculated with an equation=Bottom+(Top−Bottom)/(1+10^((Log EC50−X)*HillSlope) based on DC50 and Hillslope values.

[3] = ICR, mouse, in vivo, IV 1 mg/kg

In the case of `CN(c1ccc(C#N)c(Cl)c1)[C@H]1CC[C@H](NC(=O)c2ccc(N3CCN(CC4CN(c5ccc6c(c5)C(=O)N(C5CCC(=O)NC5=O)C6=O)C4)CC3)cc2)CC1` (some centres unmarked) [compound 237, N-((1r,4r)-4-((3-chloro-4-cyanophenyl)(methyl)amino)cyclohexyl)-4-(4-((1-(2-(2,6-dioxopiperidin-3-yl)-1,3-dioxoisoindolin-5-yl)azetidin-3-yl)methyl)piperazin-1-yl)benzamide], the “AUC(0-t)” value ([1]; IV 1 mg/kg) is reported as 1226 ng·h/mL, the Cl ([1]; IV 1 mg/kg) is reported as 13.7 mL/min/kg and the T1/2 ([1]; IV 1 mg/kg) is reported as 3.8 h. For the same compound, the Vss ([1]; IV 1 mg/kg) was 3.92 L/kg, the “AUC(0-t)” value ([1]; PO 3 mg/kg) was 1111 ng·h/mL and the Cmax ([1]; PO 3 mg/kg) was 127 ng/mL. The T1/2 ([1]; PO 3 mg/kg) was 4.3 h, the Tmax ([1]; PO 3 mg/kg) was 5.3 h and the F [1] was 30%.

In the case of `CN(c1ccc(C#N)c(Cl)c1)[C@H]1CC[C@H](NC(=O)c2ccc(N3CCC(N4CCN(c5ccc6c(c5)C(=O)N(C5CCC(=O)NC5=O)C6=O)CC4)CC3)cc2)CC1` (some centres unmarked) [compound 230, N-((1r,4r)-4-((3-chloro-4-cyanophenyl)(methyl)amino)cyclohexyl)-4-(4-(4-(2-(2,6-dioxopiperidin-3-yl)-1,3-dioxoisoindolin-5-yl)piperazin-1-yl)piperidin-1-yl)benzamide], the clearance [1, 3] is reported as 5.5 mL/min/kg, the “AUC(0-t)” value ([1]; IV 1 mg/kg) is reported as 2857 ng·h/mL and the T1/2 ([1]; IV 1 mg/kg) is reported as 6.6 h. The Vss ([1]; IV 1 mg/kg) was 2.73 L/kg, the “AUC(0-t)” value ([1]; PO 3 mg/kg) was 3811 ng·h/mL and the Cmax ([1]; PO 3 mg/kg) was 251 ng/mL. The T1/2 ([1]; PO 3 mg/kg) was 10.6 h, the Tmax ([1]; PO 3 mg/kg) was 5.3 h and the F [1] was 44%.

In the case of `CN(c1ccc(C(=O)N2CCN(C3CCN(c4ccc5c(c4)C(=O)N(C4CCC(=O)NC4=O)C5=O)CC3)CC2)cc1)[C@H]1CC[C@H](Oc2ccc(C#N)c(Cl)c2)CC1` (some centres unmarked) [compound 14], the “AR protein degradation VCap 100 nM” value [2] is reported as “C (>10% degradation but <50% (24 hr treatment))”.

In the case of `N#Cc1ccc(O[C@H]2CC[C@H](NC(=O)c3ccc(N4CCN(CCNc5ccc6c(c5)C(=O)N(C5CCC(=O)NC5=O)C6=O)CC4)cc3)CC2)cc1Cl` (some centres unmarked) [compound 218, N-((1r,4r)-4-(3-chloro-4-cyanophenoxy)cyclohexyl)-4-(4-(2-((2-(2,6-dioxopiperidin-3-yl)-1,3-dioxoisoindolin-5-yl)amino)ethyl)piperazin-1-yl)benzamide], the “% AR protein degradation in VCaP Cells” value ([2]; 0.001 μM) is reported as 6%, the “% AR protein degradation in VCaP Cells” value ([2]; 0.01 μM) is reported as 32% and the “% AR protein degradation in VCaP Cells” value ([2]; 0.1 μM) is reported as 39%. For the same compound, the “% AR protein degradation in VCaP Cells” value ([2]; 1 μM) was 21%.

With `C[C@H]1C[C@@H](NC(=O)c2ccc(N3CCN(CC4CCN(c5ccc6c(c5)C(=O)N(C5CCC(=O)NC5=O)C6=O)CC4)CC3)cc2)CC[C@@H]1Oc1ccc(C#N)c(Cl)c1` (some centres unmarked) [Cpd. No. 23] the “AR protein degradation VCap 10 nM” value [2] was “A (>90% degradation (24 hr treatment))” and the “AR protein degradation VCap 100 nM” value [2] was “A (>90% degradation (24 hr treatment))”.

In the case of `N#Cc1ccc(O[C@H]2CC[C@H](NC(=O)c3ccc(NCCCCCNc4ccc5c(c4)C(=O)N(C4CCC(=O)NC4=O)C5=O)cc3)CC2)cc1Cl` (some centres unmarked) [compound 211, N-((1r,4r)-4-(3-chloro-4-cyanophenoxy)cyclohexyl)-4-((5-((2-(2,6-dioxopiperidin-3-yl)-1,3-dioxoisoindolin-5-yl)amino)pentyl)amino)benzamide], the “% AR protein degradation in VCaP Cells” value ([2]; 0.001 μM) is reported as 59%, the “% AR protein degradation in VCaP Cells” value ([2]; 0.01 μM) is reported as 82% and the “% AR protein degradation in VCaP Cells” value ([2]; 0.1 μM) is reported as 82%. For the same compound, the “% AR protein degradation in VCaP Cells” value ([2]; 1 μM) was 79%.

For `N#Cc1ccc(O[C@@H]2CCC[C@@H](NC(=O)c3ccc(N4CCC(N5CCN(c6ccc7c(c6)C(=O)N(C6CCC(=O)NC6=O)C7=O)CC5)CC4)cc3)CC2)cc1Cl` (stereo partly drawn) [compound 227, N-((1R,4R)-4-(3-chloro-4-cyanophenoxy)cycloheptyl)-4-(4-(4-(2-(2,6-dioxopiperidin-3-yl)-1,3-dioxoisoindolin-5-yl)piperazin-1-yl)piperidin-1-yl)benzamide], the “% AR protein degradation in VCaP Cells” value ([2]; 0.001 μM) was 22%, the “% AR protein degradation in VCaP Cells” value ([2]; 0.01 μM) was 36% and the “% AR protein degradation in VCaP Cells” value ([2]; 0.1 μM) was 34%. The “% AR protein degradation in VCaP Cells” value ([2]; 1 μM) was 43%.

Work on `CCN(c1ccc(C#N)c(Cl)c1)[C@H]1CC[C@H](NC(=O)c2ccc(N3CCC(N4CCN(c5ccc6c(c5)C(=O)N(C5CCC(=O)NC5=O)C6=O)CC4)CC3)cc2)CC1` (some centres unmarked) [compound 231, N-((1r,4r)-4-((3-chloro-4-cyanophenyl)(ethyl)amino)cyclohexyl)-4-(4-(4-(2-(2,6-dioxopiperidin-3-yl)-1,3-dioxoisoindolin-5-yl)piperazin-1-yl)piperidin-1-yl)benzamide] yielded a clearance [1, 3] of 31.2 mL/min/kg, a half-life [1, 3] of 4.1 h and an AUC(0-t) ([1]; ICR, mouse, in vivo, IV 1 mg/kg, read-out: AUC(0-t)) of 539 ng·h/mL. The Vd ([1]; ICR, mouse, in vivo, IV 1 mg/kg, read-out: Vss) was 4.34 L/kg, the half-life ([1]; ICR, mouse, in vivo, PO 3 mg/kg) was 2.4 h and the AUC(0-t) ([1]; ICR, mouse, in vivo, PO 3 mg/kg, read-out: AUC(0-t)) was 492 ng·h/mL. For the same compound, the Cmax ([1]; ICR, mouse, in vivo, PO 3 mg/kg, read-out: Cmax) was 102 ng/mL, the Tmax ([1]; ICR, mouse, in vivo, PO 3 mg/kg, read-out: Tmax) was 1.7 h and the F [1] was 30%.

For `N#Cc1ccc(O[C@H]2CC[C@H](NC(=O)c3ccc(N4CCN(CCCCCNc5ccc6c(c5)C(=O)N(C5CCC(=O)NC5=O)C6=O)CC4)cc3)CC2)cc1Cl` (some centres unmarked) [compound 221, N-((1r,4r)-4-(3-chloro-4-cyanophenoxy)cyclohexyl)-4-(4-(5-((2-(2,6-dioxopiperidin-3-yl)-1,3-dioxoisoindolin-5-yl)amino)pentyl)piperazin-1-yl)benzamide], the “% AR protein degradation in VCaP Cells” value ([2]; 0.001 μM) was 17%, the “% AR protein degradation in VCaP Cells” value ([2]; 0.01 μM) was 22% and the “% AR protein degradation in VCaP Cells” value ([2]; 0.1 μM) was 51%. The “% AR protein degradation in VCaP Cells” value ([2]; 1 μM) was 34%.

In the case of `N#Cc1ccc(O[C@H]2CC[C@H](NC(=O)c3ccc(N4CCC5(CC4)CCN(C4CCN(c6ccc7c(c6)C(=O)N(C6CCC(=O)NC6=O)C7=O)CC4)CC5)cc3)CC2)cc1Cl` (some centres unmarked) [compound 7], the “AR protein degradation VCap 10 nM” value [2] is reported as “B (>50% degradation but <90% (24 hr treatment))” and the “AR protein degradation VCap 100 nM” value [2] is reported as “C (>10% degradation but <50% (24 hr treatment))”.

For `N#Cc1ccc(N[C@H]2CC[C@H](NC(=O)c3ccc(N4CCN(C5CN(c6ccc7c(c6)C(=O)N(C6CCC(=O)NC6=O)C7=O)C5)CC4)cc3)CC2)cc1Cl` (some centres unmarked) [Cpd. No. 28, N-((1r,4r)-4-((3-chloro-4-cyanophenyl)amino)cyclohexyl)-4-(4-(1-(2-(2,6-dioxopiperidin-3-yl)-1,3-dioxoisoindolin-5-yl)azetidin-3-yl)piperazin-1-yl)benzamide], the “AR protein degradation VCap 10 nM” value [2] was “A (>90% degradation (24 hr treatment))” and the “AR protein degradation VCap 100 nM” value [2] was “A (>90% degradation (24 hr treatment))”.

For `N#Cc1ccc(O[C@H]2CC[C@H](NC(=O)c3ccc(NCCCCCCCCCCCNc4ccc5c(c4)C(=O)N(C4CCC(=O)NC4=O)C5=O)cc3)CC2)cc1Cl` (some centres unmarked) [compound 217, N-((1r,4r)-4-(3-chloro-4-cyanophenoxy)cyclohexyl)-4-((11-((2-(2,6-dioxopiperidin-3-yl)-1,3-dioxoisoindolin-5-yl)amino)undecyl)amino)benzamide], the “% AR protein degradation in VCaP Cells” value ([2]; 0.001 μM) was 7%, the “% AR protein degradation in VCaP Cells” value ([2]; 0.01 μM) was 17% and the “% AR protein degradation in VCaP Cells” value ([2]; 0.1 μM) was 39%. For the same compound, the “% AR protein degradation in VCaP Cells” value ([2]; 1 μM) was 35%.

With `N#Cc1ccc(O[C@H]2CC[C@H](NC(=O)c3ccc(N4CCN(CCCNc5ccc6c(c5)C(=O)N(C5CCC(=O)NC5=O)C6=O)CC4)cc3)CC2)cc1Cl` (some centres unmarked) [compound 219, N-((1r,4r)-4-(3-chloro-4-cyanophenoxy)cyclohexyl)-4-(4-(3-((2-(2,6-dioxopiperidin-3-yl)-1,3-dioxoisoindolin-5-yl)amino)propyl)piperazin-1-yl)benzamide] the “% AR protein degradation in VCaP Cells” value ([2]; 0.001 μM) was 18%, the “% AR protein degradation in VCaP Cells” value ([2]; 0.01 μM) was 69% and the “% AR protein degradation in VCaP Cells” value ([2]; 0.1 μM) was 80%. The “% AR protein degradation in VCaP Cells” value ([2]; 1 μM) was 59%.

For `N#Cc1ccc(N[C@H]2CC[C@H](NC(=O)c3ccc(N4CCC(N5CCN(c6ccc7c(c6)C(=O)N(C6CCC(=O)NC6=O)C7=O)CC5)CC4)cc3)CC2)cc1Cl` (some centres unmarked) [compound 229, N-((1r,4r)-4-((3-chloro-4-cyanophenyl)amino)cyclohexyl)-4-(4-(4-(2-(2,6-dioxopiperidin-3-yl)-1,3-dioxoisoindolin-5-yl)piperazin-1-yl)piperidin-1-yl)benzamide], the “% AR protein degradation in VCaP Cells” value ([2]; 0.001 μM) was 51%, the “% AR protein degradation in VCaP Cells” value ([2]; 0.01 μM) was 62% and the “% AR protein degradation in VCaP Cells” value ([2]; 0.1 μM) was 52%. For the same compound, the “% AR protein degradation in VCaP Cells” value ([2]; 1 μM) was 43%.
